# In patent US7053082B1, “2,3-benzodiazepine derivatives” (priority 1999, dated 2006):
# Key:
# [1] = test system: MgCl2-induced global cerebral ischemia in mice; assay: Neuroprotective effect in MgCl2-induced global cerebral ischemia in mice; assay type: in vivo; settings: dose that prolonged survival time by 50%; i.p. 30 min before i.v. saturated MgCl2 (5 ml/kg); male NMRI mice
# Experimental: Male NMRI mice weighing 20–25 g were randomly allocated to treatment groups of 10 animals/group. The compounds were dissolved in 5 M hydrochloric acid solution and distilled water (5%/95% v/v) then the pH of the solution was adjusted to 3 using 1 M sodium hydroxide solution. The compounds were administered intraperitoneally in a volume of 10 ml/kg. Each compound was tested at four increasing dose levels and a separate group of animals was treated with the vehicle. Thirty min after treatment all mice received an intravenous bolus injection of saturated MgCl2 solution (5 ml/kg) that caused an immediate cardiac arrest and complete cerebral ischemia. Increases in survival time (interval between the injection of MgCl2 and the last observable gasp) were used as a measure of neuroprotective effect as described by Berga et al.. Percentage changes in survival time were calculated in comparison to that measured in the vehicle treated group. PD50 (the dose that prolonged survival by 50%) was calculated by linear regression analysis using percentage changes in survival time.
# [2] = Duration of action in rats as assessed from the decrease in body core temperature; assay type: in vivo; settings: male Wistar rats, i.p.; for PE, Δ ° C. (peak effect, maximum decrease in body temperature): radiotelemetry core body temperature, versus last value prior to treatment; for D, hours (duration of action): time from treatment to return of body temperature to the control level
# Experimental: At least one week prior to treatments six male Wistar rats were anaesthetised with pentobarbital-Na (60 mg/kg, i.p.; Nembutal, Phylaxia-Sanofi, Budapest). Using sterile surgical procedures TL11M2-C50-PXT or TA10TA-F40 type radiotelemetry transmitters (Data Sciences International, St. Paul, Minn., USA) permitting continuous monitoring of core body temperature were implanted into the peritoneal cavity of the animals. After surgery the rats were treated with an antibiotic (1 ml/kg b.w. i.m. Tardomyocel, Bayer A G, Leverkusen, Germany). The animals were housed individually in type 2 plastic rat cages with free access to food and tap water. The compounds were dissolved in 5 M hydrochloric acid solution and distilled water (5%/95% v/v) then the pH of the solution was adjusted to 3 using 1 M sodium hydroxide solution. The compounds were administered intraperitoneally in a volume of 10 ml/kg.
# Radio signals emitted by the transmitters were detected by RLA1000 type receivers placed under each animal's cage. Data were collected and saved by a Dataquest IV computerised data acquisition system. The computer was set to sample body temperature for 10 seconds in every second minute. Mean values for 30 min periods over the whole day were calculated running the “Sort Utility” of the Dataquest IV. […] The upper and lower limits of the evaluating routine were set to exclude biologically improbable values. Individual body temperature curves were averaged for the six animals.
# Peak effect (PE) was measured as the maximum decrease in body temperature in comparison to the last value prior to treatment. Using mean values, duration of action (D) was measured as the time interval from treatment to return of body temperature to the control level.
melting point [°C],Compound,further results
185 to 186,Cc1cc(C2=NN=C(C(=O)O)Cc3cc4c(cc32)OCO4)ccc1[N+](=O)[O-],
188 to 191,Cc1cc(C2=NN=C(C=O)Cc3cc4c(cc32)OCO4)ccc1[N+](=O)[O-],
,"CC(=O)N1N=C(c2ccc(N)c(C)c2)c2cc3c(cc2CC1(C)C#N)OCO3 (racemic) [Example 38, (±)-7-acetyl-5-(4-amino-3-methyl-phenyl)-8-cyano-7,8-dihydro-8-methyl-9H-1,3-dioxolo[4.5-h][2.3]benzodiazepine]","PD50, mg/kg i.p. [1]: 11.2 mg/kg; PE, Δ ° C. (peak effect, maximum decrease in body temperature) [2]: −1.34 °C; D, hours (duration of action) [2]: 9 h"
189 to 194,CC1=NN=C(c2ccc([N+](=O)[O-])c(C)c2)c2cc3c(cc2C1)OCO3,
179 to 181,Cc1cc(C2=NN(C(=O)NC3CC3)C(C)Cc3cc4c(cc32)OCO4)ccc1N (racemic),
157 to 161,CC(=O)N1N=C(c2ccc([N+](=O)[O-])c(C)c2)c2cc3c(cc2CC1C(N)=O)OCO3 (racemic),
172 to 175,CCC(=O)N1N=C(c2ccc([N+](=O)[O-])c(C)c2)c2cc3c(cc2CC1C)OCO3 (racemic),
191 to 193,CCC(=O)N1N=C(c2ccc([N+](=O)[O-])c(C)c2)c2cc3c(cc2CC1(C)C#N)OCO3 (racemic),
253 to 255,CC(=O)N1N=C(c2ccc([N+](=O)[O-])c(C)c2)c2cc3c(cc2CC1(C)C#N)OCO3 (racemic),
260 to 264,Cc1cc(C2=NN=C(C=NNC(N)=O)Cc3cc4c(cc32)OCO4)ccc1[N+](=O)[O-],
222 to 223,CC(=O)N1N=C(c2ccc(N)c(C)c2)c2cc3c(cc2C=C1C)OCO3,
198 to 202,CC1=Cc2cc3c(cc2C(c2ccc([N+](=O)[O-])c(C)c2)=NN1C(=O)NC1CC1)OCO3,
,"CNC(=O)N1N=C(c2ccc(N)c(C)c2)c2cc3c(cc2CC1C)OCO3 (racemic) [Example 31, (±)-5-(4-amino-3-methyl-phenyl)-7,8-dihydro-8-methyl-7-(N-methyl-carbamoyl)-9H-1,3-dioxolo[4.5-h][2.3]benzodiazepine]","PE, Δ ° C. (peak effect, maximum decrease in body temperature) [2]: −1.46 °C; D, hours (duration of action) [2]: 20 h"
148 to 151,Cc1cc(C2=NNC(C)(C#N)Cc3cc4c(cc32)OCO4)ccc1[N+](=O)[O-] (racemic),
252 to 255,Cc1cc(C2=NN=C(C#N)Cc3cc4c(cc32)OCO4)ccc1N,
,"CONC(=O)N1N=C(c2ccc(N)c(C)c2)c2cc3c(cc2CC1C)OCO3 (racemic) [Example 30, (±)-5-(4-amino-3-methyl-phenyl)-7,8-dihydro-8-methyl-7-(N-methozy-carbamoyl)-9H-1,3-dioxolo[4,5-h][2,3]benzodiazepine]","PD50, mg/kg i.p. [1]: 14.9 mg/kg"
178 to 181,CC(=O)N1N=C(c2ccc([N+](=O)[O-])c(C)c2)c2cc3c(cc2CC1C)OCO3 (racemic),

Compound,melting point [°C],further results
"CC(=O)N1N=C(c2ccc(N)c(C)c2)c2cc3c(cc2CC1C)OCO3 (racemic) [Example 27, (±)-7-acetyl-5-(4-amino-3-methyl-phenyl)-7,8-dihydro-8-methyl-9H-1,3-dioxolo[4,5-h][2,3]benzodiazepine]",121 to 123,"PD50, mg/kg i.p. [1]: 5.4 mg/kg; PE, Δ ° C. (peak effect, maximum decrease in body temperature) [2]: −1.45 °C; D, hours (duration of action) [2]: >20 h"
